These results are taken from US20250388593A1 (MITSUBISHI TANABE PHARMA CORPORATION, priority 2023, published 2025).

pKd: −log10 of the molar value.

One may read the pKd as the negative decadic logarithm of the Kd, by convention in mol/L. A high value points to a small Kd.

CRBN truncate (318-426), sequence (Q96SW2 318-426): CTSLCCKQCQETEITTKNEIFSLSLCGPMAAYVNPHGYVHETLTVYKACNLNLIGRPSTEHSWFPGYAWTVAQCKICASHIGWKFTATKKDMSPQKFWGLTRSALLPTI

In this test the target is CRBN truncate (318-426) (Homo sapiens (Human), UniProt Q96SW2). Briefly: Measurement of molecular interactions using surface plasmon resonance (SPR), Biacore T200. Particulars: 25° C., immobilized CRBN truncate, upper limit of measurement 200 μM. It is filed as binding. In short, it runs like this:
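Compound injections used 60 s association and 120 s dissociation in HEPES pH 7.5 buffer (150 mM NaCl, 1 mM TCEP, 0.005% Tween 20, 2% DMSO). The ligand was CRBN truncate 318-426 bearing a C-terminal Avi-tag, immobilised via streptavidin on an SA sensor chip.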
In general terms: Surface plasmon resonance follows binding to a sensor surface in real time, without labels.
`Cc1sc2c(c1C)C(c1ccc(Cl)cc1)=N[C@@H](CC(=O)NCCCCCCCCNC(=O)Cn1c(=O)n(C3CCCC(=O)NC3=O)c3ccccc31)c1nnc(C)n1-2` (stereo partly drawn) [Example 332, 2-[(9S)-7-(4-chlorophenyl)-4,5,13-trimethyl-3-thia-1,8,11,12-tetraazatricyclo[8.3.0.02,6]trideca-2(6),4,7,10,12-pentaen-9-yl]-N-[8-[[2-[3-(2,7-dioxoazepan-3-yl)-2-oxobenzimidazol-1-yl]acetyl]amino]octyl]acetamide] had a pKd of over 4.30. The compound `Cc1sc2c(c1C)C(c1ccc(Cl)cc1)=N[C@@H](CC(=O)NCCCCCCCCNC(=O)CCc1cccc3c1n(C)c(=O)n3C1CCCC(=O)NC1=O)c1nnc(C)n1-2` (stereo partly drawn) [Example 333, N-[8-[[2-[(9S)-7-(4-chlorophenyl)-4,5,13-trimethyl-3-thia-1,8,11,12-tetraazatricyclo[8.3.0.02,6]trideca-2(6),4,7,10,12-pentaen-9-yl]acetyl]amino]octyl]-3-[1-(2,7-dioxoazepan-3-yl)-3-methyl-2-oxobenzimidazol-4-yl]propanamide] gave a pKd of over 4.30. Regarding `O=C1NC(=O)C2(Nc3cccc(Br)c3)CCC1CC2` [Example 165, 1-(3-Bromoanilino)-3-azabicyclo [3.2.2]nonane-2,4-dione], the pKd is at most 4.00.

Regarding `CC(C)(C)OC(=O)CN1CC2(CC(=O)N(C3CCC(=O)NC3=O)C2=O)C1` (centres unmarked) [Example 48, tert-Butyl 2-[6-(2,6-dioxopiperidin-3-yl)-5,7-dioxo-2,6-diazaspiro[3.4]octan-2-yl]acetate], the pKd was at most 4.00. As for `COc1cccc2nn(C3CCCC(=O)NC3=O)nc12` (centres unmarked) [Example 256, 3-(4-Methoxybenzotriazol-2-yl)azepane-2,7-dione], the pKd is at most 4.00. For `O=C1CCCC2(CCCN(C(=O)c3ccccc3)C2)C(=O)N1` (centres unmarked) [Example 104, 2-Benzoyl-2,8-diazaspiro [5.6]dodecane-7,9-dione] the value was at most 4.00; for `Cc1sc2c(c1C)C(c1ccc(Cl)cc1)=N[C@@H](CC(=O)NCCCCCCCCCCC(=O)N1CCC(c3cnc(N4CCC5(CCCC(=O)NC5=O)C4)nc3)CC1)c1nnc(C)n1-2` (stereo partly drawn) [Example 354, 2-[(9S)-7-(4-Chlorophenyl)-4,5,13-trimethyl-3-thia-1,8,11,12-tetraazatricyclo[8.3.0.02,6]trideca-2(6),4,7,10,12-pentaen-9-yl]-N-[11-[4-[2-(6,8-dioxo-2,7-diazaspiro[4.6]undecan-2-yl)pyrimidin-5-yl]piperidin-1-yl]-11-oxoundecyl]acetamide], over 4.30; for `COc1cccc2sc(N3CC4(CC(=O)N(C5CCC(=O)NC5=O)C4=O)C3)nc12` (centres unmarked) [Example 240, 6-(2,6-Dioxopiperidin-3-yl)-2-(4-methoxy-1,3-benzothiazol-2-yl)-2,6-diazaspiro[3.4]octane-5,7-dione], at most 4.00. With `Nc1ccc2nc(N3CCC4(CCCC(=O)NC4=O)C3)sc2c1` (centres unmarked) [Example 85, 2-(6-Amino-1,3-benzothiazol-2-yl)-2,7-diazaspiro[4.6]undecane-6,8-dione], the pKd was 4.00 to 4.30.

On to `O=C1CCCC2(CCN(C(=O)c3ccc4scnc4c3)C2)C(=O)N1` (centres unmarked) [Example 152, 2-(1,3-Benzothiazole-5-carbonyl)-2,7-diazaspiro[4.6]undecane-6,8-dione], for which the pKd was at most 4.00. In turn, `CC(C)(C)OC(=O)c1cccc(N2CCC3(CCCC(=O)NC3=O)C2)c1` (centres unmarked) [Example 123, tert-Butyl 3-(6,8-dioxo-2,7-diazaspiro [4.6]undecan-2-yl) benzoate] gave a pKd of over 4.30. For `CC(=O)Nc1ccc(Cl)c(C2CCCC(=O)NC2=O)c1` (centres unmarked) [Example 65, N-[4-Chloro-3-(2,7-dioxoazepan-3-yl)phenyl]acetamide] the value was at most 4.00; for `CC(=O)Nc1cccc(C2(F)CCCC(=O)NC2=O)c1` (centres unmarked) [Example 245, N-[3-(3-Fluoro-2,7-dioxoazepan-3-yl)phenyl]acetamide], at most 4.00. `Cc1ccc(NC(=O)Nc2ccc3nc(N4CCC5(CCCC(=O)NC5=O)C4)sc3c2)cc1Cl` (centres unmarked) [Example 296, 1-(3-Chloro-4-methylphenyl)-3-[2-(6,8-dioxo-2,7-diazaspiro [4.6]undecan-2-yl)-1,3-benzothiazol-6-yl]urea] had a pKd of at most 4.00. `O=C1COCC2(CCN(C(=O)c3ccccc3)CC2)C(=O)N1` [Example 13-2, 3-benzoyl-8-oxa-3,11-diazaspiro[5.6]dodecane-10,12-dione] had a pKd of at most 4.00. Compound `CC(C)(C)OC(=O)c1cnc(N2CCC3(CCCC(=O)NC3=O)C2)cn1` (centres unmarked) [Example 35, tert-Butyl 5-(6,8-dioxo-2,7-diazaspiro[4.6]undecan-2-yl)pyrazine-2-carboxylate] gave a pKd of at most 4.00. On to `O=C1CCCC(n2ncc(Cl)cc2=O)C(=O)N1` (centres unmarked) [Example 248, 3-(4-Chloro-6-oxopyridazin-1-yl)azepane-2,7-dione], for which the pKd is at most 4.00. `Cn1c(=O)n(C2CCCC(=O)NC2=O)c2cccc(C#CCCCCCC(=O)OC(C)(C)C)c21` (centres unmarked) [Example 206, tert-Butyl 8-[1-(2,7-dioxoazepan-3-yl)-3-methyl-2-oxobenzimidazol-4-yl]oct-7-ynoate] had a pKd of over 4.30. As for `CC(C)(C)OC(=O)COc1cnc(N2CC3(CC(=O)N(C4CCC(=O)NC4=O)C3=O)C2)nc1` (centres unmarked) [Example 234], the pKd was at most 4.00. Next, `O=C1CCCC(c2cccc([N+](=O)[O-])c2)C(=O)N1` (centres unmarked) [Example 62, 3-(3-Nitrophenyl) azepane-2,7-dione]: at most 4.00. Next, `CC(C)(C)OC(=O)N1CCN(Cc2ccc(N3CCC4(CCCC(=O)NC4=O)C3)nc2)CC1` (centres unmarked) [Example 99, tert-Butyl 4-[[6-(6,8-dioxo-2,7-diazaspiro [4.6]undecan-2-yl)pyridin-3-yl]methyl]piperazine-1-carboxylate]: at most 4.00; `O=C1CCCC(n2cc(CCCCCCCC(=O)OCc3ccccc3)nn2)C(=O)N1` (centres unmarked) [Example 148, Benzyl 8-[1-(2,7-dioxoazepan-3-yl)triazol-4-yl]octanoate]: 4.00 to 4.30; `Cc1sc2c(c1C)C(c1ccc(Cl)cc1)=N[C@@H](CC(=O)NCCCCCCCNc1ccc(N3CCC(N4CCCC(=O)NC4=O)C3=O)cc1)c1nnc(C)n1-2` (stereo partly drawn) [Example 313, 2-[(9S)-7-(4-chlorophenyl)-4,5,13-trimethyl-3-thia-1,8,11,12-tetraazatricyclo[8.3.0.02,6]trideca-2(6),4,7,10,12-pentaen-9-yl]-N-[7-[4-[3-(2,4-dioxo-1,3-diazepan-1-yl)-2-oxopyrrolidin-1-yl]anilino]heptyl]acetamide]: over 4.30. The compound `CC(C)(C)OC(=O)c1ccnc(N2CCC3(CCCC(=O)NC3=O)C2)c1` (centres unmarked) [Example 91, tert-Butyl 2-(6,8-dioxo-2,7-diazaspiro [4.6]undecan-2-yl) pyridine-4-carboxylate] gave a negative logarithm of the Kd (pKd) of 4.00 to 4.30. Next, `CC1(CN2C(=O)c3ccccc3C2=O)CCCC(=O)NC1=O` (centres unmarked) [Example 31, 2-[(3-Methyl-2,7-dioxoazepan-3-yl)methyl]isoindole-1,3-dione]: 4.00 to 4.30; `N#Cc1cc([N+](=O)[O-])ccc1N1CCC2(CCCC(=O)NC2=O)C1` (centres unmarked) [Example 177, 2-(6,8-dioxo-2,7-diazaspiro[4.6]undecan-2-yl)-5-nitrobenzonitrile]: 4.00 to 4.30. `CCOC(=O)c1ccc2nc(N3CC4(CC(=O)N(C5CCC(=O)NC5=O)C4=O)C3)sc2c1` (centres unmarked) [Example 52, Ethyl 2-[6-(2,6-dioxopiperidin-3-yl)-5,7-dioxo-2,6-diazaspiro[3.4]octan-2-yl]-1,3-benzothiazole-6-carboxylate] had a pKd of over 4.30.

`CC(C)(C)OC(=O)NCCCCCCc1ccc(-c2cn(C3CCCC(=O)NC3=O)nn2)cc1` (centres unmarked) [Example 150, tert-Butyl N-[6-[4-[1-(2,7-dioxoazepan-3-yl)triazol-4-yl]phenyl]hexyl]carbamate] had a pKd of at most 4.00. `COc1ccc2nnn(C3CCCC(=O)NC3=O)c2c1` (centres unmarked) [Example 254, 3-(6-Methoxybenzotriazol-1-yl)azepane-2,7-dione]: the pKd is at most 4.00. Turning to `Cc1sc2c(c1C)C(c1ccc(Cl)cc1)=N[C@@H](CC(=O)NCCCCCCCCNC(=O)/C=C/c1ccc([C@H]3C[C@H](N4C=CCC(=O)NC4=O)C(=O)N3C)cc1)c1nnc(C)n1-2` (relative stereo) [Example 349, (E)-N-[8-[[2-[(9S)-7-(4-chlorophenyl)-4,5,13-trimethyl-3-thia-1,8,11,12-tetrazatricyclo[8.3.0.02,6]trideca-2(6),4,7,10,12-pentaen-9-yl]acetyl]amino]octyl]-3-[4-[(2R*,4S*)-4-(2,4-dioxo-5H-1,3-diazepin-1-yl)-1-methyl-5-oxopyrrolidin-2-yl]phenyl]prop-2-enamide], the pKd is over 4.30. In the case of `COc1cc(N2CCC3(CCCC(=O)NC3=O)C2)ccc1[N+](=O)[O-]` (centres unmarked) [Example 41, 2-(3-Methoxy-4-nitrophenyl)-2,7-diazaspiro[4.6]undecane-6,8-dione], the pKd is at most 4.00. Next, `CC(C)(C)OC(=O)Nc1ccc(-c2cn(C3CCCC(=O)NC3=O)nn2)cc1` (centres unmarked) [Example 3, tert-Butyl N-[4-[1-(2,7-dioxoazepan-3-yl)triazol-4-yl]phenyl]carbamate]: at most 4.00; `COC(=O)c1cccc(CN2CC3(CC(=O)N(C4CCC(=O)NC4=O)C3=O)C2)c1` (centres unmarked) [Example 53, Methyl 3-[[6-(2,6-dioxopiperidin-3-yl)-5,7-dioxo-2,6-diazaspiro[3.4]octan-2-yl]methyl]benzoate]: 4.00 to 4.30; `CC(C)(C)OC(=O)N1CCc2c(ncnc2N2CC3(CC(=O)N(C4CCC(=O)NC4=O)C3=O)C2)C1` (centres unmarked) [Example 242, tert-Butyl 4-[6-(2,6-dioxo-3-piperidyl)-5,7-dioxo-2,6-diazaspiro[3.4]octan-2-yl]-6,8-dihydro-5H-pyrido[3,4-d]pyrimidine-7-carboxylate]: at most 4.00.

For `CC(C)(C)OC(=O)c1ccc(N2CCC3(CC=CC(=O)NC3=O)C2)nc1` (centres unmarked) [Example 131, tert-Butyl 6-(6,8-dioxo-2,7-diazaspiro [4.6]undec-9-en-2-yl) pyridine-3-carboxylate], the pKd is at most 4.00.
